What follows are compounds tested against T1, Human autotaxin enzyme (Homo sapiens, UniProt Q13822) (assay: Evaluation of autotaxin inhibitor, Method C (18:0 Lyso PC substrate, choline assay, Resorufin fluorescence)). Conditions: Method C (Test Example 3), read-out: Inhibitory activity (enzyme inhibitory activity, IC50).
T1 construct: purchased R&D System
Format: biochemical
Experimental: Test Example 3 (Method C) Evaluation of Autotaxin Inhibitor
Solution B containing 100 mM Tris-HCl buffer (pH7.5), 150 mM NaCl, 5 mM MgCl2, and 0.05% Triton X-100 was prepared. Human autotaxin enzyme (purchased from R&D System) was diluted with Solution B, and 2.5 μl of which was added to a solution of test compound in DMSO. Furthermore, 2.5 μl of 200 μM 18:0 Lyso PC (purchased from Avanti Polar Lipids) in Solution B was added and allowed to react at room temperature for 2 hours. After completion of the reaction, 15 μl of the coline assay reagent (100 mM Tris-HCl buffer (pH7.5), 5 mM MgCl2, 77 μg/ml coline oxidase, 10 μg/ml peroxydase, 25 μM 10-acetyl-3,7-dihydroxyphenoxazine, and excess autotaxin inhibitor) was added and allowed to react at room temperature for 20 minutes. The fluorescent dye Resorufin, which was produced by the reaction, was detected. The fluorescence was detected using ViewLux (PerkinElmer, Inc.) with a excitation wavelength of 531 nm and a fluorescence wavelength of 598 nm.
The percent inhibition of the test compound was calculated by assuming the sample with no test compound as 0% inhibition and the sample with no enzyme as 100% inhibition, and the percent inhibitions at different concentrations of the test compound were plotted to obtain a concentration-dependent curve.

Structure (SMILES) | IC50 [nM]
CCCCCC1CN(Cc2cc(C)cc(C(=O)O)c2)C(=O)c2cc(-c3ccc(Cl)cc3)nn21 (centres unmarked) [Compound I-0122] | 10 to 100
CCCCCC1CN(Cc2ccc(O)cc2)C(=O)c2cc(-c3ccc(Cl)cc3)nn21 (centres unmarked) [Compound I-0123] | ≥ 1000
CCCCCC1CN(Cc2ccc(CC(=O)O)cc2)C(=O)c2cc(-c3ccc(Cl)cc3)nn21 (centres unmarked) [Compound I-0124] | < 10
CCCCCC1CN(Cc2cccc(CC(=O)OCC)c2)C(=O)c2cc(-c3ccc(Cl)cc3)nn21 (centres unmarked) [Compound I-0125] | ≥ 1000
CCCCCC1CN(Cc2cc(C)cc(C(=O)OC)c2)C(=O)c2cc(-c3ccc(Cl)cc3)nn21 (centres unmarked) [Compound I-0126] | ≥ 1000
CCCCCC1CN(Cc2ccccc2C)C(=O)c2cc(-c3ccc(Cl)cc3)nn21 (centres unmarked) [Compound I-0127] | ≥ 1000
CCCCCC1CN(Cc2cccc(C)c2)C(=O)c2cc(-c3ccc(Cl)cc3)nn21 (centres unmarked) [Compound I-0128] | ≥ 1000
CCCCCC1CN(Cc2ccccc2C#N)C(=O)c2cc(-c3ccc(Cl)cc3)nn21 (centres unmarked) [Compound I-0129] | ≥ 1000
CCCCCC1CN(Cc2ccc(C)cc2)C(=O)c2cc(-c3ccc(Cl)cc3)nn21 (centres unmarked) [Compound I-0130] | 100 to 1000
CCCCCC1CN(Cc2cccc(C#N)c2)C(=O)c2cc(-c3ccc(Cl)cc3)nn21 (centres unmarked) [Compound I-0131] | 100 to 1000
CCCCCC1CN(Cc2ccc(C#N)cc2)C(=O)c2cc(-c3ccc(Cl)cc3)nn21 (centres unmarked) [Compound I-0132] | 10 to 100
CCCCCC1CN(Cc2ccc(NC(C)=O)cc2)C(=O)c2cc(-c3ccc(Cl)cc3)nn21 (centres unmarked) [Compound I-0133] | ≥ 1000
CCCCCC1CN(Cc2ccc(OCCCN(C)C)cc2)C(=O)c2cc(-c3ccc(Cl)cc3)nn21 (centres unmarked) [Compound I-0134] | ≥ 1000
CCCCCC1CN(Cc2cccc(OCCCN(C)C)c2)C(=O)c2cc(-c3ccc(Cl)cc3)nn21 (centres unmarked) [Compound I-0135] | 100 to 1000
CCCCCC1CN(Cc2cc(C(C)=O)ccc2OC)C(=O)c2cc(-c3ccc(Cl)cc3)nn21 (centres unmarked) [Compound I-0136] | ≥ 1000
CCCCCC1CN(Cc2cccc(C(=O)N3CCC(O)CC3)c2)C(=O)c2cc(-c3ccc(Cl)cc3)nn21 (centres unmarked) [Compound I-0137] | 10 to 100
CCCCCC1CN(Cc2ccccc2OCCCN(C)C)C(=O)c2cc(-c3ccc(Cl)cc3)nn21 (centres unmarked) [Compound I-0138] | 100 to 1000
CCCCCC1CN(Cc2ccccc2S(=O)(=O)N2CCOCC2)C(=O)c2cc(-c3ccc(Cl)cc3)nn21 (centres unmarked) [Compound I-0139] | ≥ 1000
CCCCCC1CN(Cc2ccc(OC(C)=O)cc2)C(=O)c2cc(-c3ccc(Cl)cc3)nn21 (centres unmarked) [Compound I-0140] | ≥ 1000
CCCCCC1CN(Cc2ccc(S(C)(=O)=O)cc2)C(=O)c2cc(-c3ccc(Cl)cc3)nn21 (centres unmarked) [Compound I-0141] | 100 to 1000
CCCCCC1CN(Cc2cccc(NC(C)=O)c2)C(=O)c2cc(-c3ccc(Cl)cc3)nn21 (centres unmarked) [Compound I-0142] | 100 to 1000
CCCCCC1CN(Cc2ccc(CC(=O)OC)cc2)C(=O)c2cc(-c3ccc(Cl)cc3)nn21 (centres unmarked) [Compound I-0143] | ≥ 1000
CCCCCC1CN(Cc2ccccc2CS(=O)(=O)c2ccccc2)C(=O)c2cc(-c3ccc(Cl)cc3)nn21 (centres unmarked) [Compound I-0144] | ≥ 1000

Structure (SMILES) | IC50 [nM]
CCCCCC1CN(Cc2ccc(CO)cc2)C(=O)c2cc(-c3ccc(Cl)cc3)nn21 (centres unmarked) [Compound I-0145] | 100 to 1000
CCCCCC1CN(Cc2ccc(Oc3ccccc3)cc2)C(=O)c2cc(-c3ccc(Cl)cc3)nn21 (centres unmarked) [Compound I-0146] | ≥ 1000
CCCCCC1CN(Cc2ccc(C(N)=O)cc2)C(=O)c2cc(-c3ccc(Cl)cc3)nn21 (centres unmarked) [Compound I-0147] | 100 to 1000
CCCCCC1CN(Cc2cccc(C(=O)O)c2)C(=O)c2cc(-c3ccc(Cl)cc3)nn21 (centres unmarked) [Compound I-0148] | < 10
O=C(O)c1cccc(CN2C(=O)c3cc(-c4ccc(Cl)cc4)nn3[C@H]3CCC[C@H]32)c1 [Compound I-0149] | 100 to 1000
CCCCC1CN(Cc2cccc(C(=O)O)c2)C(=O)c2cc(-c3ccc(Cl)cc3)nn21 (centres unmarked) [Compound I-0150] | < 10
CCCCC1CN(CNC(C)=O)C(=O)c2cc(-c3ccc(Cl)cc3)nn21 (centres unmarked) [Compound I-0151] | 10 to 100
C[C@H]1CN(CC(=O)N2CCOCC2)C(=O)c2cc(-c3ccc(Cl)cc3)nn21 [Compound I-0152] | ≥ 1000
CCCCNC(=O)CN1C[C@H](C)n2nc(-c3ccc(Cl)cc3)cc2C1=O [Compound I-0153] | ≥ 1000
C[C@H]1CN(CC(=O)N2CCCC2)C(=O)c2cc(-c3ccc(Cl)cc3)nn21 [Compound I-0154] | ≥ 1000
C[C@H]1CN(CC(=O)N(C)CC(=O)O)C(=O)c2cc(-c3ccc(Cl)cc3)nn21 [Compound I-0155] | ≥ 1000
C[C@H]1CN(CC(=O)NCCC(=O)O)C(=O)c2cc(-c3ccc(Cl)cc3)nn21 [Compound I-0156] | ≥ 1000
C[C@H]1CN(CC(=O)NCCCC(=O)O)C(=O)c2cc(-c3ccc(Cl)cc3)nn21 [Compound I-0157] | ≥ 1000
C[C@H]1CN(CC(=O)C2CCCCN2C(=O)O)C(=O)c2cc(-c3ccc(Cl)cc3)nn21 (some centres unmarked) [Compound I-0158] | 100 to 1000
C[C@H]1CN(CC(=O)N2CCCC(C(=O)O)C2)C(=O)c2cc(-c3ccc(Cl)cc3)nn21 (some centres unmarked) [Compound I-0159] | ≥ 1000
C[C@H]1CN(CC(=O)NC(Cc2ccccc2)C(=O)O)C(=O)c2cc(-c3ccc(Cl)cc3)nn21 (some centres unmarked) [Compound I-0160] | 10 to 100
CCCC(NC(=O)CN1C[C@H](C)n2nc(-c3ccc(Cl)cc3)cc2C1=O)C(=O)O (some centres unmarked) [Compound I-0161] | 100 to 1000
C[C@H]1CN(CC(=O)NCC(=O)O)C(=O)c2cc(-c3ccc(Cl)cc3)nn21 [Compound I-0162] | ≥ 1000
C[C@H]1CN(Cc2cccc(CC(=O)O)c2)C(=O)c2cc(-c3ccc(Cl)cc3)nn21 [Compound I-0163] | 100 to 1000
C[C@H]1CN(Cc2cccc(C#N)c2)C(=O)c2cc(-c3ccc(Cl)cc3)nn21 [Compound I-0164] | 100 to 1000
C[C@H]1CN(Cc2ccc(C#N)cc2)C(=O)c2cc(-c3ccc(Cl)cc3)nn21 [Compound I-0165] | ≥ 1000
C[C@H]1CN(Cc2cccc(OCCCN(C)C)c2)C(=O)c2cc(-c3ccc(Cl)cc3)nn21 [Compound I-0166] | ≥ 1000
C[C@H]1CN(Cc2cccc(C(=O)N3CCC(O)CC3)c2)C(=O)c2cc(-c3ccc(Cl)cc3)nn21 [Compound I-0167] | ≥ 1000

Structure (SMILES) | IC50 [nM]
C[C@H]1CN(Cc2ccccc2OCCCN(C)C)C(=O)c2cc(-c3ccc(Cl)cc3)nn21 [Compound I-0168] | ≥ 1000
C[C@H]1CN(Cc2ccc(C(N)=O)cc2)C(=O)c2cc(-c3ccc(Cl)cc3)nn21 [Compound I-0169] | ≥ 1000
C[C@H]1CN(Cc2ccc(CC(=O)O)cc2)C(=O)c2cc(-c3ccc(Cl)cc3)nn21 [Compound I-0170] | 10 to 100
C[C@H]1CN(Cc2ccc(O)cc2)C(=O)c2cc(-c3ccc(Cl)cc3)nn21 [Compound I-0171] | ≥ 1000
C[C@H]1CN(Cc2ccccc2)C(=O)c2cc(-c3ccc(Cl)cc3)nn21 [Compound I-0172] | ≥ 1000
O=C(O)c1cccc(CN2CC(COCc3ccccc3)n3nc(-c4ccc(Cl)cc4)cc3C2=O)c1 (centres unmarked) [Compound I-0173] | 100 to 1000
O=C(O)c1cccc(CN2CC(CO)n3nc(-c4ccc(Cl)cc4)cc3C2=O)c1 (centres unmarked) [Compound I-0174] | ≥ 1000
CCOCC1CN(Cc2cccc(C(=O)O)c2)C(=O)c2cc(-c3ccc(Cl)cc3)nn21 (centres unmarked) [Compound I-0175] | 10 to 100
CCCOCC1CN(Cc2cccc(C(=O)O)c2)C(=O)c2cc(-c3ccc(Cl)cc3)nn21 (centres unmarked) [Compound I-0176] | < 10
N#Cc1ccc(CN2CC(COCc3ccccc3)n3nc(-c4ccc(Cl)cc4)cc3C2=O)cc1 (centres unmarked) [Compound I-0177] | ≥ 1000
CCOCC1CN(Cc2ccc(C#N)cc2)C(=O)c2cc(-c3ccc(Cl)cc3)nn21 (centres unmarked) [Compound I-0178] | 100 to 1000
CCCCCC1CN(c2ccc(C(=O)O)cc2)C(=O)c2cc(-c3ccc(Cl)cc3)nn21 (centres unmarked) [Compound I-0179] | 100 to 1000
CCCCCC1CN(Cc2ccc(C#N)cc2)C(=O)c2cc(C(=O)N3CCC(C#N)CC3)nn21 (centres unmarked) [Compound I-0180] | ≥ 1000
CCCC1CN(Cc2ccc(C#N)cc2)C(=O)c2cc(-c3ccc(Cl)cc3)nn21 (centres unmarked) [Compound I-0181] | 100 to 1000
CCCC1CN(Cc2ccc(C#N)cc2)C(=O)c2cc(-c3ccc(C(F)(F)F)cc3)nn21 (centres unmarked) [Compound I-0182] | ≥ 1000
CCCCC1CN(Cc2ccc(C#N)cc2)C(=O)c2cc(-c3ccc(Cl)cc3)nn21 (centres unmarked) [Compound I-0183] | 10 to 100
CCCCCC1CN(Cc2cccc(C(=O)O)n2)C(=O)c2cc(-c3ccc(Cl)cc3)nn21 (centres unmarked) [Compound I-0184] | < 10
CCCCCC1CN(Cc2cncc(C(=O)O)c2)C(=O)c2cc(-c3ccc(Cl)cc3)nn21 (centres unmarked) [Compound I-0185] | 10 to 100
N#Cc1ccc(CN2CC(CC(F)(F)C(F)(F)C(F)(F)F)n3nc(-c4ccc(Cl)cc4)cc3C2=O)cc1 (centres unmarked) [Compound I-0186] | ≥ 1000
CCCCC1CN(CC(=O)NC2(C#N)CC2)C(=O)c2cc(-c3ccc(Cl)cc3)nn21 (centres unmarked) [Compound I-0187] | 100 to 1000
CCCC1CN(Cc2ccc(C#N)cc2)C(=O)c2cc(-c3ccc(Cl)cc3NC(C)=O)nn21 (centres unmarked) [Compound I-0188] | 10 to 100
CCCCC1CN(Cc2ccc(C#N)cc2)C(=O)c2cc(-c3ccc(Cl)cc3NC(C)=O)nn21 (centres unmarked) [Compound I-0189] | 10 to 100
